Series [1] has as its system invasive C. albicans clinical isolates. Format: cell-based, Candida albicans. The note with it: 20 biofilm-forming isolates. Here is the method: The antifungal effect of Pom-1A to Pom-1F on Candida spp. biofilm formation can be determined following the Clinical and Laboratory Standard Institute guidelines (M27-A3). For this, 2.5 × 10^3 yeast cells were incubated in 200 µL of RPMI-1640 medium supplemented with L-glutamine, fluconazole, amphotericin B, and Pom-1A to Pom-1F. Incubation was performed on flat-bottomed polystyrene microplates with 96 wells (Sarstedt AG & Co. KG, Nümbrecht, Germany) for 24 h at 37 °C without shaking. The subsequent treatment with crystal violet was originally developed by George O’Toole for bacteria and adapted to Candida biofilms. For this purpose, the planktonic phase was removed, and the wells were washed twice with 200 µL of demineralized water. The remaining biofilm cells were treated with 200 µL of 0.1% (w/v) crystal violet solution for 15 min. After removing the solution, they were washed again twice with 200 µL demineralized water, and the microtiter plates were dried for at least 24 h at 25 °C. The stain was dissolved with 200 µL of 30% acetic acid and transferred to a new plate after 15 min. The absorbance at 560 nm was measured using a Tecan Infinite F200 microplate reader (Tecan Group Ltd., Männedorf, Switzerland). The resulting data were evaluated against the untreated controls so that the efficacy of the agents could be determined.

The test system of series [2] is adenocarcinomic human alveolar basal epithelial cells A549. Format: cell-based. The method, then: (§1) For the experiments, adenocarcinomic human alveolar basal epithelial cells A549 [69] and human dermal fibroblasts (HDFs) were used. Cultivation was performed in DMEM with FBS (10% (w/v), 15% (w/v)), MEM NEAAs (1% (w/v)), and penicillin–streptomycin (100 U*mL^−1, 1% (w/v)) at 37 °C in an incubator containing 5% CO2. A resazurin assay was used to detect the viability of the cells. Therefore, 2 × 10^4 cells per well of a 96-well plate were incubated in 200 µL DMEM with additives at 37 °C and 5% CO2. The medium was removed, and 100 µL of the medium and 100 µL of a peptide solution (2.5 µg/mL, 25 µg/mL) were added. After incubation for 24 h at 37 °C and 5% CO2, 20 µL of a resazurin solution (0.15 mg/mL) were added into each well, and the cells were incubated again for 24 h at 37 °C and 5% CO2. Fluorescence measurement (excitation wavelength—535 nm, emission wavelength—595 nm) of the resulting resorufin was then performed using a Tecan Infinite F200 microplate reader (Tecan Group Ltd., Männedorf, Switzerland).

The subject of series [3] is human dermal fibroblasts (HDFs). Format: cell-based. The method, then:
as §1

Where two headings read alike, the source gives them in different places.

For `C[C@@H]1[C@H](O)[C@@H](C)/C=C/C=C/C=C/C=C/C=C/C=C/C=C/[C@H](O[C@@H]2O[C@H](C)[C@@H](O)[C@H](N)[C@@H]2O)C[C@@H]2O[C@](O)(C[C@@H](O)C[C@@H](O)[C@H](O)CC[C@@H](O)C[C@@H](O)CC(=O)O[C@H]1C)C[C@H](O)[C@H]2C(=O)O` [amphotericin B], the “number of resistant isolates (biofilm detectable, inhibition lower than 100%)” value in series [1] (amphotericin B 2 µg/mL (w/v)) is “six”.

As to `OC(Cn1cncn1)(Cn1cncn1)c1ccc(F)cc1F` [fluconazole, Fluconazole], the “number of resistant isolates (biofilm detectable, inhibition lower than 100%)” value in series [1] (fluconazole 8 µg/mL (w/v)) is “four”.

Triton X-100: the “cell viability, A549” value in series [2] was “zero”. The “cell viability, HDF” value in series [3] is recorded as “zero”.

The values above are taken from paper PMC9319270, “Combination of Six Individual Derivatives of the Pom-1 Antibiofilm Peptide Doubles Their Efficacy against Invasive and Multi-Resistant Clinical Isolates of the Pathogenic Yeast Candida albicans” (Pharmaceutics, 2022).
